We go through 2 molecules from patent US20230414786A1, “PERFUSION-GUIDED GENE THERAPY FOR IMPROVING CANCER TREATMENT” (priority 2022, published 2023).

For data set [1] the following is noted: cited from earlier work.
The test system of data set [2] is iNOS expression in tumor endothelium of NGP tumors. Description: iNOS immunohistochemistry in tumor endothelium (lectin-positive area) 72 h after sonopermeation transfection. It is filed as in vivo, nude athymic mice. Conditions: 72 h after transfection. From the text:
(§1) Orthotopic NGP Tumor Model and Implantation. NGP cells were MYC-N amplified, and thus function as an appropriate model for poor prognosis NB. They reproduce many features of clinical NB, such as histology, frequency, and location of metastatic lesions when renally implanted, as was done in nude athymic mice (Charles River, Wilmington, Mass.) to generate tumor models for this study. Mice were firstly anesthetized with inhalable isoflurane. After being positioned in a sterile environment, the entire right side of each mouse was cleaned with ethanol and painted with Betadine. A 3-5 mm diagonal incision was made with a scalpel blade toward the ribcage atop the kidney. The underlying fascia was cut with scissors to expose the right kidney. A 27-gauge needle (of length 1.3 cm, BD Biosciences) fitted to a syringe containing 20 μL of cell suspension (1×10^6 NGP cells in Phosphate Buffered Saline, Leibniz Institute DSMZ-GmbH, Braunschweig, Germany) was inserted into the kidney and its contents injected slowly. The kidney was then returned to the abdominal cavity. […] Mice were monitored daily to confirm complete recovery, and tumors were allowed to grow for 4-5 weeks (1-2-g weight) before ultrasound experiments were initiated. […]
Quantitative Ex Vivo Imaging. […] The images were then analyzed in ImageJ (NIH, USA), selecting the lectin-positive area of the picture taken to create the area to be quantified. […]

The next data set has as its system iNOS. The data set can be described thus: ELISA of protein extracts from transfected NGP cells (iNOS expression). In kind it is cell-based, H. sapiens. As to conditions: NGP cell protein extracts, n=3.
In data set [3] the test system is orthotopic NGP tumor. Description: Immunohistochemical analysis of tumor vascularity and hypoxia (Isolectin-B4, aSMA, pimonidazole) 72 h after transfection. It is filed as in vivo, nude athymic mice. Further details: unit not given here. The protocol: Tumoral Hypoxia Measurements. 60 mg/kg pimonidazole-HCl (Hypoxyprobe, Massachusetts) was injected intraperitoneally 30 min before sacrifice, and tissues were harvested and processed as described above.
Immunohistochemistry. Excised NGP tumors were embedded in Tissue-Tek® optimum cutting temperature (O.C.T.) compound (Electron Microscopy Services), then stored at −20 ° C. until cryosectioned (Leica CM1860). 15 μm thick cryosections were fixed with acetone and permeabilized with Tween 20. […]
Quantitative Ex Vivo Imaging. […] The images were then analyzed in ImageJ (NIH, USA), selecting the lectin-positive area of the picture taken to create the area to be quantified. This area was then used to quantify the mean intensity of the iNOS staining within the tumor endothelium. The mean iNOS intensity within each tumor endothelium z-stack was then averaged to obtain the mean iNOS intensity of each tumor blood vessel analyzed. […] Because tumor cells were injected directly into the kidney and often coopt glomeruli and tubules (PMID: 24066611), NOS expression was quantified in the adjacent kidney in a separate analysis, following the same method as tumor iNOS quantification. Quantification of pimonidazole and Isolectin was performed using the average intensities from the respective stains comparing the iNOS treated and Sham groups using FIJI (NIH). […]

The subject of data set [4] is orthotopic NGP tumor. The data set can be described thus: Animal survival study (days for tumors to increase by 50% above starting volume, up to 14 days). In kind it is in vivo, nude athymic mice. As to conditions: plasmid transfection followed by L-DOX with sonopermeation; study endpoint 14 days.
Experimental: Animal Survival Studies. Survival in vivo experiments were performed as detailed above. Briefly, mature tumors were primed with gene therapy (either mKate or iNOS), transfected by sonopermeation with 1×10^9 cationic polydispersed MBs having median diameter ˜2 μm. 72 h following gene therapy treatment, sonopermeation was performed using net-neutral lipid MBs to deliver liposomal doxorubicin as described above. For this experiment, due to the volume of bubbles needed, size-isolated microbubbles (SIMBs) were obtained from Advanced Microbubbles Inc to perform imaging and sonopermeation. Tumors were measured every other day until they reached the endpoint criteria up to 14 days using calipers, and re-imaged with a bolus of 1×10^7 SIMBs on Day 7 as well as re-dosed with L-DOX in conjunction with sonopermeation. Normalized tumor growth over the two-week observation period was obtained by dividing the volume on any given day by initial tumor volume. Kaplan-Meier curves were generated to plot the number of days it took for tumors to increase by 50% above their starting volume up to 14 days. Survival curves were plotted, and statistical analyses were conducted in Graphpad (Prism 6). Statistical significance between groups represents Mantel-Cox test, with p<0.05 interpreted as significant.
The subject of data set [5] is iNOS expression in adjacent glomeruli. Description: iNOS immunohistochemistry in adjacent kidney glomeruli after sonopermeation transfection. As to conditions: p>0.05. In kind it is in vivo, nude athymic mice. From the text:
Quantitative Ex Vivo Imaging. For iNOS expression colocalization studies, sections were imaged on a Marianas Confocal (Zeiss) using a 40X oil objective, capturing 14 steps of 0.33 μm on the z-axis, with a resolution of 0.33 μm per pixel. At least five images of each tumor of were taken, with four tumors per group. To avoid bias, the endothelial marker Isolectin-B4 was used to determine image capture and focus and iNOS staining was captured at equal exposure times for all tissues. The images were then analyzed in ImageJ (NIH, USA), selecting the lectin-positive area of the picture taken to create the area to be quantified. This area was then used to quantify the mean intensity of the iNOS staining within the tumor endothelium. The mean iNOS intensity within each tumor endothelium z-stack was then averaged to obtain the mean iNOS intensity of each tumor blood vessel analyzed. Averages were then obtained for each tumor. Because tumor cells were injected directly into the kidney and often coopt glomeruli and tubules (PMID: 24066611), NOS expression was quantified in the adjacent kidney in a separate analysis, following the same method as tumor iNOS quantification. Quantification of pimonidazole and Isolectin was performed using the average intensities from the respective stains comparing the iNOS treated and Sham groups using FIJI (NIH). […]

In data set [6] the test system is orthotopic NGP tumor. Description: Quantitative contrast-enhanced ultrasound (qCEUS) imaging of tumor perfusion volume and reperfusion rate. It is filed as in vivo, nude athymic mice.
Source text: as §1, with “kidney.” for “kidney. A 27-gauge needle (of length 1.3 cm, BD Biosciences) fitted to a syringe containing 20 μL of cell suspension (1×10^6 NGP cells in Phosphate Buffered Saline, Leibniz Institute DSMZ-GmbH, Braunschweig, Germany) was inserted into the kidney and its contents injected slowly. The kidney was then returned to the abdominal cavity.”
3D Volume and 2D Perfusion Imaging. […] Data were collected and subsequently analyzed using custom LabVIEW software, where tumor boundaries were manually segmented. […] As described in Wei K, et al., Quantification of Myocardial Blood Flow With Ultrasound-Induced Destruction of Microbubbles Administered as a Constant Venous Infusion, Circulation, 1998; 97: 473-83, MB perfusion conforms to the equation y=A (1−e^βt), where A is the relative blood volume (RBV) and β is the rate of reperfusion. […]

As to `[N]=O` [NO, Nitric oxide], in data set [1] (in vivo), the half-life in vivo was less than 0.002 s. Also, the “half-life in whole blood” value in data set [1] (whole blood) is 0.0018 s.

As for Sham, the “iNOS in tumor endothelial cells compared with untreated tumors” value in data set [2] is given as “no change in iNOS”. For the same molecule, the “iNOS mean intensity within lectin-positive area” value in data set [2] (n=4 per group) is reported as 8,814±2,952. For the same molecule, the “iNOS protein by ELISA” value with iNOS was 0.04 units. Also, the “distance between aSMA pericytes and endothelium” value in the data set on orthotopic NGP tumor [3] is 5.8±1.1. In the data set with orthotopic NGP tumor [4], the “median survival time (time to 50% tumor growth)” value is on record as 9 days. In data set [5], the “iNOS expression in adjacent glomeruli” value is listed as “remains unchanged”. In addition, the “change in RBV (normalized to tumor volume, vascularity) from baseline” value in the data set on orthotopic NGP tumor [6] (3 days post-transfection) worked out at 68±7%. Also, in the data set on orthotopic NGP tumor [6] (day 3 after transfection), the “rate of MB reperfusion (RR) normalized to TV” value is on record as 77±8%.
